In patent US11359180B2, “Method for producing myocardial cells using synthetic peptide” (Toagosei Co., Ltd., priority 2015, dated 2022):

Assays:
[1] = test system: iPS cells of human origin (clone 201B7); assay: Expression of myocardial cell marker genes by fluorescent cytoimmunostaining; type: cell-based; conditions: sample 1 addition section, 16th day after start of main culture
Protocol: To check the state of expression of myocardial cell marker genes, cytoimmunostaining (fluorescent immunostaining) of proteins that are the gene products of myocardial marker genes was carried out on the cells in each of the test sections at the 16th day after the start of main culture. The expression of the following as myocardial marker genes was checked: myosin heavy chain (MHC), cardiac Troponin T (cTnT), tropomyosin (TM), and connexin 43 (Cx43).
First, the cells in each test section were subjected to a fixing treatment, a permeabilization treatment, and a blocking treatment. This fixing treatment, permeabilization treatment, and blocking treatment were carried out using a commercial kit (Image-iT Fixation/Permeabilization Kit, Life Technologies Corporation) in accordance with the manual provided with the kit.
Specifically, the culture medium was first removed from the culture vessel (12-well plate) for the cells in each test section on the 16th day after the start of the main culture (16th day after the addition of the myocardial cell differentiation-inducing synthetic peptide). The fixing treatment was performed by adding the fixative solution (Fixative Solution, contained 4 volume % formaldehyde in PBS (pH=7.3)) from the kit at 0.4 mL/well and holding at quiescence for 15 minutes at room temperature. This was followed by washing 3 times using the wash buffer (Wash Buffer, PBS, pH=7.4) from the kit at 0.5 mL/well.
A permeabilization treatment was then performed by adding the permeabilization solution (Permeabilization solution, contained 0.5 volume % Triton (registered trademark) X-100) from the kit at 0.5 mL/well and holding at quiescence for 15 minutes at room temperature. This was followed by washing three times with the wash buffer ([…]) from the kit.
After the cells in each well had been washed with PBS-T (PBS containing 0.25 volume % Triton (registered trademark) X-100), a blocking treatment was performed by adding the blocking solution (Blocking Solution, contained 3 weight/volume % (w/v %) BSA fraction V in DPBS (Dulbecco's PBS) (pH=7.4)) from the kit to each well and standing at quiescence overnight (about 18 hours) at 4° C.
After this blocking treatment, the primary antibody dilutions were added to each well followed by holding at quiescence for 2 hours at room temperature; the primary antibody dilutions were prepared by the dilution of the specified primary antibodies to a suitable antibody concentration using the blocking solution used in the blocking treatment.
The following primary antibodies were used as these primary antibodies: anti-myosin heavy chain antibody, anti-cardiac Troponin T antibody, anti-tropomyosin antibody, and anti-connexin 43 antibody. […]

[2] = test system: iPS cells of human origin (clone 201B7); assay: Induction of myocardial cell differentiation: microscopic observation of beating cells; type: cell-based
From the text: Pluripotent stem cells were induced to myocardial cells (production of myocardial cells) using the myocardial cell differentiation-inducing synthetic peptide obtained in Example 1 (sample 1). Specifically, pluripotent stem cells were induced to myocardial cells (production of myocardial cells) by using the myocardial cell differentiation-inducing synthetic peptide obtained in Example 1 (sample 1) in place of activin A in the method for inducing the differentiation of pluripotent stem cells into hepatocytes. The method described in Non Patent Literature 3 was adopted for the method for inducing the differentiation of pluripotent stem cells into hepatocytes. iPS cells of human origin (clone designation: 201B7, source: Takahashi K et al., Cell, 131, 861-872 (2007)) were used for the test cells. These iPS cells were supplied by the Center for iPS Cell Research and Application of Kyoto University.
The iPS cells, which were the test cells, were seeded to 12-well plates coated with an extracellular matrix (Geltrex (registered trademark) in the present case). Using mTeSR1 (STEMCELL Technologies Inc.) for the culture medium, they were cultured (precultured) in a CO2 incubator under conditions of 37° C. and 5% CO2 until an appropriate cell density (here, a confluence of about at least 60% and not more than 70%) had been reached. Medium exchange was performed each day during this preculture.
The sample 1 obtained in Example 1 was then added to the culture medium and cultivation was carried out (main culture). Thus, the pluripotent stem cells were induced to myocardial cells (production of myocardial cells) by using the myocardial cell differentiation-inducing synthetic peptide obtained in Example 1 (sample 1) in place of the activin A in the method for inducing the differentiation of pluripotent stem cells into hepatocytes that is given in Non Patent Literature 3. The following were set up in the present example: a test section (referred to below as the activin A addition section) that used the same method as the method given in Non Patent Literature 3 for inducing the differentiation of pluripotent stem cells to hepatocytes using activin A; a test section (referred to below as the sample 1 addition section) that used the myocardial cell differentiation-inducing synthetic peptide of sample 1 in place of the activin A in the activin A addition section; and a control section to which neither the activin A nor the myocardial cell differentiation-inducing synthetic peptide was added. The specifics are given below. The culture conditions in this main culture are given schematically in FIG. 1.
(§1) First, the culture medium was exchanged to base medium 1 in the activin A addition section, the sample 1 addition section, and the control section. In the activin A addition section, activin A (R&D Systems, Inc., Cat. No. 338-AC-D50) was added to the culture vessel (i.e., to the base medium 1) in a quantity that provided an activin A concentration in the culture medium of 100 ng/mL. […]
as §1, with “After this cultivation for 2 days (i.e., the 2nd day after the start of the main culture), the” for “First, the”, “medium 2” for “medium 1”, “A” for “A (R&D Systems, Inc., Cat. No. 338-AC-D50)”, “medium 2)” for “medium 1)”

| Molecule | expression of cardiac Troponin T in comparison to control section ([1]; FIG. 2) | expression of myosin heavy chain in comparison to control section ([1]; FIG. 2) | expression of connexin 43 in comparison to control section ([1]; FIG. 3) | expression of tropomyosin in comparison to control section ([1]; FIG. 3) | number of beating cells present (abundance ratio) compared to 9th day ([2]; sample 1 addition section, 8 μM, 10th day after start of main culture) | number of beating cells ([2]; sample 1 addition section, 8 μM, 17th day after start of main culture, 12-well plate) | number of beating cells (abundance ratio), average ([2]; sample 1 addition section, repeated tests, 17th day after start of main culture) | probability that at least 1 beating cell was present per 1 well ([2]; sample 1 addition section, tests independently repeated a plurality of times, 12-well plate) | presence of beating cells ([2]; activin A addition section, 100 ng/mL, daily observation during main culture) |
| --- | --- | --- | --- | --- | --- | --- | --- | --- | --- |
| LLLLLLVGLTAPAGKKRTLRKNDRKKR [sample 1] | substantially increased | substantially increased | substantially increased | substantially increased | had increased | approximately 38 beating cells/well | about 40 per 1 well of the 12-well plate | at least 95% | – |
| activin A: peptide having approximately 140 amino acid residues (R&D Systems, Cat. No. 338-AC-D50), used in the hepatocyte differentiation-inducing method (protein, UniProt P08476 311-426, looked up, Inhibin beta A chain, peptide having approximately 140 amino acid residues (R&D Systems, Cat. No. 338-AC-D50), used in the hepatocyte differentiation-inducing method) Inhibin beta A chain: GLECDGKVNICCKKQFFVSFKDIGWNDWIIAPSGYHANYCEGECPSHIAGTSGSSLSFHSTVINHYRMRGHSPFANLKSCCVPTKLRPMSMLYYDDGQNIIKKDIQNMIVEECGCS | – | – | – | – | – | – | – | – | could not be confirmed |
